Laboratory results reported in US5486511A, “4-amino-17β-(cyclopropyloxy)androst-4-en-3-one, 4-amino-17β-(cyclopropylamino)androst-4-en-3-one and related compounds as C17-20 lyase and 5α-reductase” (Merrell Dow Pharmaceuticals Inc., priority 1994, dated 1996).

Assays:
canine lyase = assay: Inhibition of canine steroid C17,20 lyase (testicular microsomes); format: biochemical, dog; conditions: substrate, dog lyase
Description: (§1) The activity of the present compounds as inhibitors of steroid C17,20 lyase was established using microsomal preparations of the steroid C17,20 lyase enzyme from human or laboratory animal testes. Human testes used for this purpose were obtained from therapeutic orchiectomies. Specifically, microsomes were isolated from human, cynomolgus monkey, dog, rat or athymic nude mouse testicular tissue. The compound to be tested was dissolved in dimethyl sulfoxide and diluted in 0.05M potassium phosphate buffer to give the desired concentrations of the test compound. The potassium phosphate buffer was at pH 7.4 for the human, monkey and dog lyase assays and at pH 7.2 for the rat and athymic nude mouse lyase assays. Assays also contained 1 mM NADPH, 5 mM glucose-6-phosphate, 1 IU/ml glucose-6-phosphate dehydrogenase (an NADPH regenerating system) and microsomal protein in a total volume of 0.2 mL. Control assays contained all components including dimethyl sulfoxide, but with no test compound. All assays were performed in duplicate. […] Radioactivity in the steroid peaks was measured by a Radiomatic Model HS Flo-One detector.
(§2) The enzyme activity for each incubate was calculated from the percent conversion of substrate to products, and the results were expressed as percent inhibition of control. […] The Ki and kinact for time dependent inhibitors were determined by graphical analysis of Kitz-Wilson plots. […]

rat lyase = assay: Inhibition of rat steroid C17,20 lyase (testicular microsomes); format: biochemical; conditions: substrate, rat enzyme
Description: as §1, §2

nude mouse lyase = assay: Inhibition of athymic nude mouse steroid C17,20 lyase (testicular microsomes); format: biochemical; conditions: substrate, athymic nude mouse enzyme
Description: as §1, §2

[1] = substrate: CC(=O)[C@@]1(O)CC[C@H]2[C@@H]3CC=C4C[C@@H](O)CC[C@]4(C)[C@H]3CC[C@@]21C; assay: Inhibition of human steroid C17,20 lyase (testicular microsomes); format: biochemical; conditions: other: substrate, 34.0 °C
Description: as §1, §2

[2] = substrate: CC(=O)[C@@]1(O)CC[C@H]2[C@@H]3CC=C4C[C@@H](O)CC[C@]4(C)[C@H]3CC[C@@]21C; assay: Inhibition of cynomolgus monkey steroid C17,20 lyase (testicular microsomes), time dependent, Kitz-Wilson; format: biochemical; conditions: other: substrate, 34.0 °C
Description: as §1, §2

`CC(=O)[C@@]1(O)CC[C@H]2[C@@H]3CC=C4C[C@@H](O)CC[C@]4(C)[C@H]3CC[C@@]21C` [17α-hydroxypregnenolone, reference compound] was tested, and the Km (canine lyase) was 0.06 µM.

In the case of `CC(=O)[C@@]1(O)CC[C@H]2[C@@H]3CCC4=CC(=O)CC[C@]4(C)[C@H]3CC[C@@]21C` [17α-hydroxyprogesterone, reference compound], the Km (rat lyase) is reported as 0.1 µM and the Km (nude mouse lyase) is reported as 0.03 µM.

B1: human lyase (Homo sapiens) (protein)
chain: MWELVALLLLTLAYLFWPKRRCPGAKYPKSLLSLPLVGSLPFLPRHGHMHNNFFKLQKKYGPIYSVRMGTKTTVIVGHHQLAKEVLIKKGKDFSGRPQMATLDIASNNRKGIAFADSGAHWQLHRRLAMATFALFKDGDQKLEKIICQEISTLCDMLATHNGQSIDISFPVFVAVTNVISLICFNTSYKNGDPELNVIQNYNEGIIDNLSKDSLVDLVPWLKIFPNKTLEKLKSHVKIRNDLLNKILENYKEKFRSDSITNMLDTLMQAKMNSDNGNAGPDQDSELLSDNHILTTIGDIFGAGVETTTSVVKWTLAFLLHNPQVKKKLYEEIDQNVGFSRTPTISDRNRLLLLEATIREVLRLRPVAPMLIPHKANVDSSIGEFAVDKGTEVIINLWALHHNEKEWHQPDQFMPERFLNPAGTQLISPSVSYLPFGAGPRSCIGEILARQELFLIMAWLLQRFDLEVPDDGQLPSLEGIPKVVFLIDSFKVKIKVRQAWREAQAEGST
notes: microsomes were isolated from human, cynomolgus monkey, dog, rat or athymic nude mouse testicular tissue; from tissue; host or cells: human testis microsomes (therapeutic orchiectomies)
B1 gave a Km [1] of 0.30 µM.

B2: cynomolgus monkey C17,20 lyase (Macaca fascicularis) (protein)
chain: MWELVALLLLTLAYLFWPKRRCPGAKYPKSLLSLPLVGSLPFLPRHGHMHNNFFKLQKKYGPIYSVRMGTKTTVIVGHHQLAKEVLIKKGKDFSGRPQVTTLDILSNNRKGIAFADYGAHWQLHRRLAMATFALFKDGDQKLEKIICQEISTLCDMLATHNGQTIDISFPVFVAITNVISLICFNISYKNGDPELKIVHNYNEGIIDSLGKESLVDLFPWLKVFPNKTLEKLKRHVKTRNDLLTKIFENYKEKFHSDSITNMLDVLMQAKMNSDNGNAGPDQDSELLSDNHILTTIGDIFGAGVETTTSVVKWIVAFLLHNPQVKKKLYEEIDQNVGFSRTPTISDRNRLLLLEATIREVLRIRPVAPMLIPHKANVDSSIGEFAVDKGTHVIINLWALHHNEKEWHQPDQFMPERFLNPAGTQLISPSLSYLPFGAGPRSCIGEILARQELFLIMAWLLQRFDLEVPDDGQLPSLEGNPKVVFLIDSFKVKIKVRQAWREAQAEGST
notes: microsomes were isolated from human, cynomolgus monkey, dog, rat or athymic nude mouse testicular tissue; from tissue; host or cells: cynomolgus monkey testis microsomes
Molecule B2 has a Km [2] of 0.11 µM.
